The nature of this data set: Toxicity against Artemia salina. In kind it is organism-based. As to conditions: in vivo, read-out: LD50 (the source's name).

This passage reports LC50 results from ChEMBL document CHEMBL1153721, “Isohalitulin and haliclorensins B and C, three marine alkaloids from Haliclona tulearensis” (J Nat Prod, 2010).

With `C[C@H]1CCCCCCCN2C=[N+](CCC2)C1` [HALICLORENSIN B], the LC50 is 2200 µM.

As to `C[C@H]1CCCCCCCCCCCCCNC1` [HALICLORENSIN C], the LC50 is 2100 µM.

On to `C[C@H]1CCCCCCCN(CCCn2cc(-c3c(O)c(O)cc4ncccc34)c(-c3c(O)c(O)cc4ncccc34)c2)C1` [ISOHALITULIN], for which the LC50 is 900 µM.
